Here are results for 13 molecules from PubChem BioAssay AID1845200 (Molecular Pharmacology Branch, DTP, NCI, 2023).

In this assay the test system is ASPS-1 complex tumor spheroids, viability. The experiment in a line: Anticancer human tumor ASPS-1 cell line growth inhibition.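 On all read-outs here: spheroids exposed to agents for 7 days after 3 days of growth.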 Conditions: for viability, T/C: stronger effect = lower value. An excerpt: Multicellular complex tumor spheroid response to DNA repair inhibitors in combination with DNA-damaging drugs
This study explores the anticancer activities of DNA-damaging drugs and inhibitors of DNA damage repair, both as single agents and in combinations. Complex tumor spheroids comprised of malignant cells, endothelial cells and mesenchymal stem cells served as an in vitro model for human solid tumors. This model system incorporates physiologically relevant features and patient-derived or established malignant cell lines with clinically relevant genetic alterations from many tumor types. Twenty-six patient-derived or established malignant cell lines were evaluated representing sarcoma, melanoma, small cell lung cancer (SCLC), non-small cell lung cancer (NSCLC), as well as bladder, ovarian and pancreatic cancers. The concentration ranges selected for each drug and investigational agent were based upon clinically achievable concentrations if the clinical Cmax of the agent was known.
Compounds. The drugs and compounds olaparib (NSC753686), talazoparib (NSC767125), berzosertib (NSC777718), elimusertib (NSC800525), nedisertib (NSC802822), VX-984 (NSC792969), AZD-1390 (NSC803789), temozolomide (NSC362856), topotecan (NSC609699), trabectedin (NSC813783), staurosporine (NSC755774), and gemcitabine (NSC613327) were obtained from the National Cancer Institute (NCI) Developmental Therapeutics Program Chemical Repository. The FDA-approved anticancer drug set is available from the Developmental Therapeutics Program at https://dtp.cancer.gov/organization/dscb/obtaining/available_plates.htm. […] The stock solutions were prepared in dimethyl sulfoxide (DMSO, Sigma-Aldrich, St. Louis, MO, cat. D2650) at 400-fold the tested concentration and stored at -70 degrees C. Prior to their use, the stock solutions were diluted in fresh medium and the final DMSO concentration in the assay was 0.25% (v/v). All drugs and investigational agents were tested over a range starting from a high concentration at or near the clinical Cmax and decreasing in half-log increments. If the clinical Cmax for an agent had not been determined, the highest concentration tested was 10 microM.
Cell Lines. The patient-derived cancer cell (PDC) lines: 156681-154-R-J1-PDC, 283228-195-R-J1-PDC, 287954-098-R-J1-PDC, 292921-168-R-J2-PDC, 349418-098-R-PDC, 425362-245-T-J1-PDC, 556581-035-R-J1-PDC, and BL0293-F563-PDC were received from the NCI Patient-Derived Models Repository (PDMR, https://pdmr.cancer.gov). The established cell lines HS-SY-2 (RRID:CVCL_8719), MPNST, and SYO-1 (RRID:CVCL_7146) were obtained from the Sloan Kettering Institute. The alveolar soft parts sarcoma cell line ASPS-1 (RRID:CVCL_S738) was established at the NCI and grown from internal seed stocks. The following established cell lines were purchased from the American Type Culture Collection (ATCC, Manassas, VA): G-401 (ATCC, cat. CRL-1441, RRID:CVCL_0270), SW982 (ATCC, cat. HTB-93, RRID:CVCL_1734), VA-ES-BJ (ATCC, cat. CRL-2138, RRID:CVCL_1785), NCI-H719 (ATCC, cat. CRL-5837, RRID:CVCL_1582), NCI-H196 (ATCC, cat. CRL-5823, RRID:CVCL_1509), NCI-H841 (ATCC, cat. CRL-5845, RRID:CVCL_1595), NCI-H1618 (ATCC, cat. CRL-5879, RRID:CVCL_1480), NCI-H1876 (ATCC, cat. CRL-5902, RRID:CVCL_1503), DMS 114 (ATCC, cat. CRL-2066; RRID:CVCL_1174), NCI-H211 (ATCC, cat. CRL-5824; RRID:CVCL_1529), and SW 1271 (ATCC, cat. CRL-2177, RRID:CVCL_1716). The small cell lung cancer cell line COR-L88 was purchased from Sigma-Aldrich (cat. 92031917-1VL, RRID:CVCL_1141). The non-small cell lung cancer cell lines NCI-H226 (RRID:CVCL_1544) and NCI-H322M (RRID:CVCL_1557) were established at the NCI and grown from internal seed stocks. Pooled donor human umbilical vein endothelial cells (HUVEC, Lonza, cat. CC-2519) and human mesenchymal stem cells (hMSC, Lonza, cat. PT-2501) were purchased from Lonza (Walkersville, MD).
Cell Culture. All cells were maintained in an incubator at 37 degrees C and 5% CO2 with 95% humidity. […]

Where [1] appears, read: compound alone, run of 11/07/2019.
Where [2] appears, read: compound alone, run of 12/16/2019.

Where “and” joins values, the source holds several entries; their conditions need not be identical. Equal entries are not always repeated. Calls of active or inactive are those of the source. How the source made its calls: active means viability on the fitted dose curve at most 10% of control; inactive means the rest.

For `CC(C)n1c(=O)n(C)c2cnc3cc(F)c(-c4ccc(OCCCN5CCCCC5)nc4)cc3c21`, the viability, T/C by setting is: (compound 0.0316 µM) 95.5% and 110% and 106%; (compound 0.1 µM) 108% (2×) and 107%; (compound 0.316 µM) 103% and 105% and 101%; (compound 1 µM) 95.2% and 106% and 100%; (compound 3.16 µM) 93% and 98.2% and 95.5%; (compound 10 µM) 63.6% and 56.2% and 38.7%. The IC50 (curve of compound) was > 10000 nM and 7970 nM.

For `CC1COCCN1c1cc(-c2ccnn2C)c2ccnc(-c3ccn[nH]3)c2n1` (configuration not stated), the viability, T/C (compound 0.0316 µM) was 85.3% and 92.7% and 83.6%; the viability, T/C (compound 0.1 µM) was 60.3% and 70.7% and 69.8%; the viability, T/C (compound 0.316 µM) is 43.5% and 50.8% and 46.5%; the viability, T/C (compound 1 µM) was 37.7% and 46% and 48.2%; the viability, T/C (compound 3.16 µM) was 42.6% and 45.1% and 48%; the viability, T/C (compound 10 µM) was 39.6% and 46.7% and 44.7%. Besides, the IC50 (curve of compound) is 198 nM and 376 nM and 270 nM.

For `CC[C@@]1(O)C(=O)OCc2c1cc1n(c2=O)Cc2cc3c(CN(C)C)c(O)ccc3nc2-1`, the viability, T/C by setting is: (compound 0.003 µM) 101% [middle of 10 runs]; (compound 0.00949 µM) 103% [middle of 10 runs]; (compound 0.03 µM) 96.3% [middle of 10 runs]; (compound 0.0949 µM) 56.3% [middle of 10 runs]. The IC50 was 222 nM and 160 nM and > 300 nM under setting [1]; over 300 nM under setting [2].

`CNCc1ccc(-c2cc(-c3nc(-c4ccc(S(=O)(=O)C(C)C)cc4)cnc3N)on2)cc1`: the viability, T/C is 107% and 103% and 105% (compound 0.00949 µM); 102% and 113% and 112% (compound 0.03 µM); 97.4% and 108% and 96.5% (compound 0.0949 µM); 58.1% and 74.3% and 76.5% (compound 0.3 µM); 40.4% and 38.1% and 45.4% (compound 0.949 µM); 9.11% and 6.66% and 18% (compound 3 µM). Further, the IC50 (curve of compound) was 545 nM and 644 nM and 783 nM.

`COc1cc(C)[nH]c(=O)c1CN1CCc2c(Cl)cc(C(OC)C3COC3)c(Cl)c2C1=O` (configuration not stated): the viability, T/C is, setting by setting: (compound 0.0316 µM) 105% and 103% and 99%; (compound 0.1 µM) 108% and 106% and 105%; (compound 0.316 µM) 107% and 102% and 100%; (compound 1 µM) 106% and 97.9% and 96.5%; (compound 3.16 µM) 104% and 102% and 98%; (compound 10 µM) 99.3% and 104% and 97.8%. Further, the 50% inhibitory concentration (IC50) (curve of compound) is over 10000 nM.

As to `COc1cc2c(cc1O)CCNC21CSC2c3c(OC(C)=O)c(C)c4c(c3C(COC1=O)N1C(O)C3Cc5cc(C)c(OC)c(O)c5C(C21)N3C)OCO4` (configuration not stated), the viability, T/C runs as follows: (compound 30 pM) 103% [middle of 10 runs]; (compound 94.9 pM) 103% [middle of 10 runs]; (compound 0.0003 µM) 92.7% [middle of 10 runs]; (compound 0.000949 µM) 71.9% [middle of 10 runs]; (compound 0.003 µM) 23% [middle of 10 runs]. In addition, the IC50 under setting [2] was 1.63 nM [middle of 10 runs].

With `COc1ccc([C@@H](O)c2cc(-c3ncnc4cc(N5CCOCC5)ccc34)c(F)cc2Cl)nn1`, the viability, T/C was 108% and 103% (2×) (compound 0.0316 µM); 95.8% and 109% and 111% (compound 0.1 µM); 103% and 102% and 94.3% (compound 0.316 µM); 90.4% (compound 1 µM); 77.3% and 89.6% and 84.7% (compound 3.16 µM); 49.6% and 58.1% and 50.4% (compound 10 µM). In addition, the result (compound 1 µM) was inactive. Moreover, the IC50 (curve of compound) was 9890 nM and > 10000 nM.

On to `Cc1cc(C)c(CNC(=O)c2cc(-c3ccc(CN4CCOCC4)cc3)cc3c2cnn3C2CCCC2)c(=O)[nH]1`, for which the viability, T/C (compound 0.0316 µM) was 103% and 100% and 101%; the viability, T/C (compound 0.1 µM) is 103% (2×) and 102%; the viability, T/C (compound 0.316 µM) was 103% and 92.5% and 99.4%; the viability, T/C (compound 1 µM) is 105% and 93.1% and 101%; the viability, T/C (compound 3.16 µM) was 96.7% and 94.2% and 93.3%; the viability, T/C (compound 10 µM) was 79.3% and 80.4% and 80.8%. Further, the IC50 (curve of compound) is over 10000 nM.

Take `Cc1sc2c(c1C)C(c1ccc(Cl)cc1)=NC(CC(=O)Nc1ccc(O)cc1)c1nnc(C)n1-2` (configuration not stated): the viability, T/C reads like this: (compound 0.00949 µM) 102% and 110% and 107%; (compound 0.03 µM) 103% and 111% and 108%; (compound 0.0949 µM) 103% and 111% and 109%; (compound 0.3 µM) 108% and 105% and 100%; (compound 0.949 µM) 97.8% and 101% and 94.3%; (compound 3 µM) 90.6% and 87.9% and 83.7%. Under “curve of compound”, the IC50 was over 3000 nM.

In the case of `Cn1ncnc1[C@H]1c2n[nH]c(=O)c3cc(F)cc(c23)N[C@@H]1c1ccc(F)cc1`, the outcome (compound 0.00949 µM) was inactive. For the same molecule, the viability, T/C is, setting by setting: (compound 0.00949 µM) 96.5% and 101%; (compound 0.03 µM) 105% (2×) and 98.6%; (compound 0.0949 µM) 102% (2×) and 96.3%; (compound 0.3 µM) 102% and 95.5% and 98.4%; (compound 0.949 µM) 101% and 97.7% and 91.2%; (compound 3 µM) 88.4% and 86% and 72.1%. In addition, the IC50 (curve of compound) was over 3000 nM.

Take `Cn1nnc2c(C(N)=O)ncn2c1=O`: the viability, T/C is 98.1% [middle of 10 runs] (compound 1 µM); 103% [middle of 10 runs] (compound 3.16 µM); 92% [middle of 10 runs] (compound 10 µM); 81% [middle of 10 runs] (compound 31.6 µM); 70.1% [middle of 10 runs] (compound 100 µM). The IC50 under setting [1] was over 100000 nM.

As to `O=C(c1cc(Cc2n[nH]c(=O)c3ccccc23)ccc1F)N1CCN(C(=O)C2CC2)CC1`, the viability, T/C was 97.9% and 107% and 106% (compound 0.0949 µM); 95% and 115% and 111% (compound 0.3 µM); 95.6% and 107% and 108% (compound 0.949 µM); 101% and 108% and 102% (compound 3 µM); 101% and 111% and 103% (compound 9.49 µM); 89.2% and 97.1% and 60.3% (compound 30 µM). In addition, the IC50 (curve of compound) was over 30000 nM.

In the case of `[2H]c1nc(C)nc([2H])c1-c1cc(NC[C@@H](C)c2cccc3c(C(=O)NC)ccnc23)ncn1`, the viability, T/C reads like this: (compound 0.0316 µM) 107% and 101% and 102%; (compound 0.1 µM) 108% and 104%; (compound 0.316 µM) 108% and 104%; (compound 1 µM) 106% and 113% and 95.1%; (compound 3.16 µM) 103% and 107% and 100%; (compound 10 µM) 97.9% and 101% and 95.2%. Further, the outcome reads like this: (compound 0.1 µM) “inactive”; (compound 0.316 µM) “inactive”. For the setting “curve of compound”, the 50% inhibitory concentration (IC50) is over 10000 nM.

One may read the viability, T/C as the ratio of treated to control. Usually IC50 stands for the concentration at which inhibition is half-maximal.
